Results: patent US6380463B1, “Inducible herbicide resistance” (priority 1995, dated 2002)

What was measured:
[1] = tested on: alcA/alcR system; assay: non-solvent chemical treatments, induction of the alcA/alcR switch; type: in vivo; conditions: non-solvent chemical treatment
[2] = tested on: Brassica napus var Westar; assay: kill curve on glyphosate, oil seed rape growing tip plus two leaves in MS medium; type: in vivo
Procedure: (§1) Kill Curves for Tobacco var Samsun and Brassica napus var Westar on glyphosate
(§2) Both species were tested on a range of glyphosate concentrations by inserting, in the case of tobacco a 5-6 mm stem segment carrying a leaf node and in the case of oil seed rape the growing tip plus two leaves into MS medium containing glyphosate at […] glyphosate isopropylamine salt.

[3] = tested on: 5-enol-pyruvylshikimate-3-phosphate (EPSP) synthase; assay: EPSPS assay in plant extracts (14C-labelled phosphoenol pyruvate, HPLC); type: biochemical
Procedure: Assays for 5-enol-pyruvylshikimate-3-phosphate (EPSP) synthase activity in plant extracts were carried out (1) by following the disappearance of the phosphoenol pyruvate substrate (as described by Rubin, J. L., Gaines, C. G and Jensen, R. A., in Plant Physiol (1984 75, 839-845) or (2) by conducting the assay in the reverse direction and coupling to pyruvate kinase and lactate dehydrogenase (as described by Mousdale D. M. and Coggins J. R. in Planta (1984) 160, 78-83) or (3) by using 14(-labelled phosphoenol pyruvate as substrate and detecting the formation of radioactive EPSP by HPLC on an anion exchange column and detecting using a flow-through radioactivity detector as described by Della-Cioppa et al in Proc. Nat. Acad. Sci. (USA) (1986), 83, 6873-6877.

[4] = tested on: Tobacco var Samsun; assay: kill curve on glyphosate, tobacco stem segment in MS medium; type: in vivo
Procedure: as §1, §2

[5] = tested on: alcA/alcR system; conditions: applied as a foliar spray, FIG. 3
From the text: (§3) 3. We have tested the specificity of alcA/alcR system with a range of solvents used in agronomic practice.
FIG. 3 illustrates the levels of induced reporter gene activity when the chemicals listed in Table 1 were applied as a foliar spray;

[6] = tested on: alcA/alcR system; assay: hydroponic seedling system (root drenching), induced reporter gene expression; type: in vivo; conditions: FIG. 2
From the text: as §3

Compound: C=C1C[C@]23C[C@@]1(O)CC[C@H]2[C@@]12C=C[C@H](O)[C@@](C)(C(=O)O1)[C@H]2[C@@H]3C(=O)O [gibberelic acid]
- induction of the alcA/alcR system [1]: failed to induce

Compound: C=C [ethylene]
- induction of the alcA/alcR system [1]: failed to induce

Compound: O=C(O)c1ccccc1O [salicylic acid]
- induction of the alcA/alcR system [1]: failed to induce

Compound: O=C(O)CNCP(=O)(O)O [glyphosate, N-phosphonomethyl-glycine]
- growth scored after two weeks ([2]; 0.005 mM in MS medium): No stem growth, 1 new leaf, roots to 1 cm
- growth scored after two weeks ([2]; 0.011 mM in MS medium): No stem growth, no new leaves, roots ˜ 0.5 cm
- growth scored after two weeks ([2]; 0.0275 mM in MS medium): No stem growth, no new leaves, roots ˜ 2 mm
- growth scored after two weeks ([2]; 0.055 mM in MS medium): No growth in any organ, ends of stem blackened
- inhibition of EPSP synthase activity [3]: relatively resistant to inhibition
- growth scored after two weeks ([4]; 0.005 mM in MS medium): No growth
- growth scored after two weeks ([4]; 0.01 mM in MS medium): No growth
- growth scored after two weeks ([4]; 0.011 mM in MS medium): No growth
- growth scored after two weeks ([4]; 0.0275 mM in MS medium): No growth
- growth scored after two weeks ([4]; 0.055 mM in MS medium): No growth

Compound: CCO [ethanol]
- levels of induced reporter gene activity [5]: high levels of induced reporter gene activity
- levels of induced reporter gene expression [6]: high levels of induced reporter gene expression

Compound: O=C1CCCCC1 [cyclohexanone]
- levels of induced reporter gene expression [6]: high levels of induced reporter gene expression

Compound: auxin
- induction of the alcA/alcR system [1]: failed to induce

Compound: CC1=CC(=O)CC(C)(C)C1(O)/C=C/C(C)=C\C(=O)O (stereo not shown) [absisic acid]
- induction of the alcA/alcR system [1]: failed to induce

Compound: CCC(C)O (stereo not shown) [butan-2-ol]
- levels of induced reporter gene expression [6]: high levels of induced reporter gene expression
